This passage reports IC90 results from patent publication US20230012368A1 (Hoffmann-La Roche Inc., priority 2018, published 2023).

In this experiment the test system is Acinetobacter baumannii ATCC 17978. As to the kind of experiment: Antimicrobial susceptibility testing: 90% growth inhibitory concentration (IC90) determination. The format is cell-based. As to conditions: 90% growth inhibitory concentration, Acinetobacter baumannii ATCC17978, Iso-Sensitest broth, OD 600 nm over 16h, read-out: ATCC17978 IC90. The protocol:
Antimicrobial Susceptibility Testing:
90% Growth Inhibitory Concentration (IC90) Determination
The in vitro antimicrobial activity of the compounds was determined according to the following procedure:
The assay used a 10-points Iso-Sensitest broth medium to measure quantitatively the in vitro activity of the compounds against Acinetobacter baumannii ATCC 17978 and Acinetobacter baumannii ATCC 17961.
Stock compounds in DMSO were serially twofold diluted (e.g. range from 50 to 0.097 μM final concentration) in 384 wells microtiter plates and inoculated with 49 μl the bacterial suspension in Iso-Sensitest medium to have a final cell concentration of ˜5×10^(5) CFU/ml in a final volume/well of 50 ul/well. Microtiter plates were incubated at 35±2° C.
Bacterial cell growth was determined with the measurement of optical density at λ=600 nm each 20 minutes over a time course of 16h. Growth inhibition was calculated during the logarithmic growth of the bacterial cells with determination of the concentration inhibiting 50% (IC50) and 90% (IC90) of the growth.
Table 1 provides the 90% growth inhibitory concentrations (IC90) in micromoles per liter of the compounds of present invention obtained against the strain Acinetobacter baumannii ATCC17978 and Acinetobacter baumannii ATCC17961.

The mark [1] stands for this setting: Acinetobacter baumannii, ATCC17978, 16 h.

Counter-ions that a name gives are not always drawn. Like-named read-outs stand apart in the source and are kept apart here.

By IC90 is commonly meant the concentration needed for an effect of 90%. For `CCc1cc(Nc2nccn3c(-c4ccc(OCC#N)c(F)c4F)cnc23)ccc1C(=O)NCCNC(=O)CN` [Example 136, N-[2-[(2-aminoacetyl)amino]ethyl]-4-[[3-[4-(cyanomethoxy)-2,3-difluoro-phenyl]imidazo[1,2-a]pyrazin-8-yl]amino]-2-ethyl-benzamide formate], the IC90 under setting [1] was determined as 60 nM.
`O=C(NCc1ccccn1)c1ccc(Nc2nccn3c(-c4ccc(OC(F)F)cc4)cnc23)cc1Cl` [Example 111, 2-chloro-4-((3-(4-(difluoromethoxy)phenyl)imidazo[1,2-a]pyrazin-8-yl)amino)-N-(pyridin-2-ylmethyl)benzamide]: the concentration for an effect of 90% (IC90) under setting [1] is 2100 nM.
The same measure, in the same setting: the figure for `COc1ccc(-c2cnc3c(Nc4ccc(C(=O)NCC5CCSCC5)c(Cl)c4)nccn23)c(F)c1F` [Example 42, 2-chloro-4-[[3-(2,3-difluoro-4-methoxy-phenyl)imidazo[1,2-a]pyrazin-8-yl]amino]-N-(tetrahydrothiopyran-4-ylmethyl)benzamide] is 890 nM.
For the compound `COc1ccc(-c2cnc3c(Nc4ccc(C(=O)NCCCCN)c(Cl)c4)nccn23)c(F)c1F` [Example 515, N-(4-aminobutyl)-2-chloro-4-((3-(2,3-difluoro-4-methoxyphenyl)imidazo[1,2-a]pyrazin-8-yl)amino)benzamide hydrochloride], the IC90 was 42 nM.
For `CCc1cc(Nc2nccn3c(-c4ccc(OC)c(F)c4F)cnc23)ccc1C(=O)NCCNC(=O)[C@@H](N)CCN` [Example 399, N-[2-[[(2S)-2,4-diaminobutanoyl]amino]ethyl]-4-[[3-(2,3-difluoro-4-methoxy-phenyl)imidazo[1,2-a]pyrazin-8-yl]amino]-2-ethyl-benzamide; formic acid], under setting [1], the IC90 was determined as 380 nM.
The same measure, in the same setting: the figure for `COC(=O)[C@@H](N)CCCCNC(=O)c1ccc(Nc2nccn3c(-c4ccc(OC(F)F)cc4)cnc23)cc1C` [Example 226, methyl (2S)-2-amino-6-[[4-[[3-[4-(difluoromethoxy)phenyl]im-idazo[1,2-a]pyrazin-8-yl]amino]-2-methylbenzoyl]amino]hexa-noate;hydrochloride] is 1100 nM; for `Cc1cc(Nc2nccn3c(-c4ccc(OC(F)F)cc4)cnc23)ccc1C(=O)NCCCN1CCOCC1` [Example 209, 4-[[3-[4-(difluoromethoxy)phenyl]im-idazo[1,2-a]pyrazin-8-yl]amino]-2-methyl-N-(3-morpholin-4-ylpropyl)benzamide] it is 590 nM.
For the compound `COc1ccc(-c2cnc3c(Nc4ccc(C(=O)NCCCN5CCNCC5)c(C)c4)nccn23)c(F)c1F` [Example 67, 4-((3-(2,3-difluoro-4-methoxyphenyl)imidazo [1,2-a]pyrazin-8-yl)amino)-2-methyl-N-(3-(piperazin-1-yl)propyl)benzamide], the IC90 under setting [1] was determined as 120 nM.
Turning to `CCc1cc(Nc2nccn3c(-c4ccc(OC(F)F)c(F)c4F)cnc23)ccc1C(=O)NCCNC(=O)CN(C)C` [Example 294, 4-[[3-[4-(difluoromethoxy)-2,3-difluorophenyl]imidazo[1,2-a]pyrazin-8-yl]amino]-N-[2-[[2-(dimethylamino)acetyl]amino]ethyl]-2-ethylbenzamide], the IC90 under setting [1] amounted to 140 nM.
`CCc1cc(Nc2nccn3c(-c4ccc(OC)c(F)c4F)cnc23)ccc1C(=O)NCCNC(=O)CCCN` [Example 360, N-[2-(4-aminobutanoylamino)ethyl]-4-[[3-(2,3-difluoro-4-methoxyphenyl)imidazo[1,2-a]pyrazin-8-yl]amino]-2-ethylbenzamide]: the IC90 under setting [1] was determined as 70 nM.
On the same count and under the same terms, the figure for `CCc1cc(Nc2nccn3c(-c4ccc(Oc5ncccn5)c(F)c4F)cnc23)ccc1C(=O)NCCCCCN` [Example 558, N-(5-aminopentyl)-4-((3-(2,3-difluoro-4-(pyrimidin-2-yloxy)phenyl)imidazo[1,2-a]pyrazin-8-yl)amino)-2-ethylbenzamide formate] is 190 nM; for `Cc1cc(Nc2nccn3c(-c4ccc(OC(F)F)cc4)cnc23)ccc1C(=O)N(C)CC(=O)N1CCOCC1` [Example 279, 4-[[3-[4-(difluoromethoxy)phenyl]im-idazo[1,2-a]pyrazin-8-yl]amino]-N,2-dimethyl-N-(2-morpholin-4-yl-2-oxoethyl)benzamide] it is 3400 nM.
For the compound `COc1ccc(-c2cnc3c(Nc4ccc5c(c4)CCN(CCO)C5=O)nccn23)c(F)c1F` [Example 302, 6-[[3-(2,3-difluoro-4-methoxyphenyl)imidazo[1,2-a]pyrazin-8-yl]amino]-2-(2-hydroxyethyl)-3,4-dihydroisoquinolin-1-one], the IC90 under setting [1] came to 300 nM.
Turning to `CCc1cc(Nc2nccn3c(-c4ccc(OC)cc4C(F)(F)F)cnc23)ccc1C(=O)NC` [Example 537, 2-ethyl-4-[[3-[4-methoxy-2-(trifluoromethyl)phenyl]imid-azo[1,2-a]pyrazin-8-yl]amino]-N-methyl-benzamide], the IC90 under setting [1] is 207 nM.
`COc1ccc(-c2cnc3c(Nc4cc(C)c(C(=O)NCCN)c(F)c4)nccn23)c(F)c1F` [Example 467, N-(2-aminoethyl)-4-((3-(2,3-difluoro-4-methoxyphenyl)imidazo[1,2-a]pyrazin-8-yl)amino)-2-fluoro-6-methylbenzamide]: the IC90 under setting [1] worked out at 630 nM.
Consider `COc1ccc(-c2cnc3c(Nc4ccc(C(=O)NCCCN5CCNC(C(=O)O)C5)c(Cl)c4)nccn23)c(F)c1F` (centres unmarked) [Example 314, 4-[3-[[2-chloro-4-[[3-(2,3-difluoro-4-methoxyphenyl)imidazo[1,2-a]pyrazin-8-yl]amino]benzoyl]amino]pro-pyl]piperazine-2-carboxylic acid;formic acid], for which, under setting [1], the IC90 was 1300 nM.
Consider `Cc1cc(Nc2nccn3c(-c4ccc(OC(F)F)cc4)cnc23)ccc1C(=O)N(C)CCN1CCOC(C)(C)C1` [Example 255, 4-[[3-[4-(difluoromethoxy)phenyl]im-idazo[1,2-a]pyrazin-8-yl]amino]-N-[2-(2,2-dimethylmorpholin-4-yl)ethyl]-N,2-dimethylbenzamide], for which the IC90 under setting [1] was 2200 nM.
On to `CN(CCN1CCNCC1)C(=O)c1ccc(Nc2nccn3c(-c4ccc(OCC#N)c(F)c4F)cnc23)cc1Cl` [Example 74, 2-chloro-4-((3-(4-(cyanomethoxy)-2,3-difluorophenyl)imidazo [1,2-a]pyrazin-8-yl)amino)-N-methyl-N-(2-(piperazin-1-yl)ethyl)benzamide], for which the IC90 under setting [1] worked out at 60 nM.
For the compound `COc1ccc(-c2cnc3c(Nc4ccc(C(=O)NCC5CCS(=O)(=O)CC5)c(Cl)c4)nccn23)c(F)c1F` [Example 106, 2-chloro-4-[[3-(2,3-difluoro-4-methoxy-phenyl)imidazo[1,2-a]pyrazin-8-yl]amino]-N-[(1,1-dioxothian-4-yl)methyl]benzamide; 2,2,2-trifluoroacetic acid], the IC90 stood at 140 nM.
For `CCc1cc(Nc2nccn3c(-c4ccc(Oc5ccc(OCCCN)cn5)c(F)c4F)cnc23)ccc1C(=O)N(C)C` [Example 510, 4-[[3-[4-[[5-(3-aminopropoxy)-2-pyridyl]oxy]-2,3-difluoro-phenyl]imidazo[1,2-a]pyrazin-8-yl]amino]-2-ethyl-N,N-dimethyl-benzamide; formic acid], under setting [1], the IC90 amounted to 860 nM.
With `COc1ccc(-c2cnc3c(Nc4ccc(C(=O)NC[C@@H](O)[C@@H](O)[C@H](O)[C@H](O)CO)c(C)c4)nccn23)cc1F` [Example 288, 4-[[3-(3-fluoro-4-methoxyphenyl)imidazo[1,2-a]pyrazin-8-yl]amino]-2-methyl-N-[(2R,3R,4R,5R)-2,3,4,5,6-pentahydroxyhexyl]benzamide], under setting [1], the IC90 is 3000 nM.
Regarding `COc1ccc(-c2cnc3c(Nc4ccc(C(=O)N(C)CC5CCNCC5)c(C)c4)nccn23)cc1F` [Example 210, 4-[[3-(3-fluoro-4-methoxyphenyl)imidazo[1,2-a]pyrazin-8-yl]amino]-N,2-dimethyl-N-(piperidin-4-ylmethyl)benzamide;hydrochlo-ride], the IC90 under setting [1] turned out to be 630 nM.
For the compound `CCc1cc(Nc2nccn3c(-c4ccc(OCC#CCOCCN)c(F)c4F)cnc23)ccc1C(=O)NCCCN` [Example 159, 4-[[3-[4-[4-(2-aminoethoxy)but-2-ynoxy]-2,3-difluoro-phenyl]imidazo[1,2-a]pyrazin-8-yl]amino]-N-(3-aminopropyl)-2-ethyl-benzamide], the IC90 under setting [1] was 230 nM.
Turning to `Cc1cc(Nc2nccn3c(-c4ccc(OC(F)F)cc4)cnc23)ccc1C(=O)NCCCCNC(=N)N` [Example 83, 4-((3-(4-(difluoromethoxy)phenyl)imidazo[1,2-a]pyrazin-8-yl)amino)-N-(4-guanidinobutyl)-2-methylbenzamide], the IC90 under setting [1] turned out to be 250 nM.
In the case of `CCc1cc(Nc2nccn3c(-c4ccc(OC)c(F)c4F)cnc23)ccc1C(=O)NCCNC(=O)[C@@H](N)[C@@H](C)O` [Example 393, N-[2-[[(2S,3R)-2-amino-3-hydroxy-butanoyl]amino]ethyl]-4-[[3-(2,3-difluoro-4-methoxy-phenyl)imidazo[1,2-a]pyrazin-8-yl]amino]-2-ethyl-benzamide; formic acid], the IC90 under setting [1] is 260 nM.
With `COc1ccc(-c2cnc3c(Nc4ccc(C(=O)NCCN)c(C)c4)nccn23)cc1` [Example 31, N-(2-aminoethyl)-4-((3-(4-methoxyphenyl)imidazo [1,2-a]pyrazin-8-yl)amino)-2-methylbenzamide], the IC90 under setting [1] is 2900 nM.
